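Dose response: 5 concentrations. Exposure: 48 h. Format: 96-well plates. Endpoint: linear interpolation; highest concentration if not reached. GI50 marks 50% less growth.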 Active and inactive are the calls of the source. Cut-off read from the data, not from the text of the source: active = GI50 up to about 1.1 µM and inactive = higher.
Experiments:
Test in all cases: growth of human tumour cells (NCI), 48 h
MDA-MB-231 = test system: MDA-MB-231
BT-549 = test system: BT-549
NCI-H23 = test system: NCI-H23
COLO 205 = test system: COLO 205
HT-29 = test system: HT-29
NCI-H522 = test system: NCI-H522
SF-268 = test system: SF-268
UO-31 = test system: UO-31
A498 = test system: A498
Hs-578T = test system: Hs-578T
IGROV-1 = test system: IGROV-1
SK-MEL-28 = test system: SK-MEL-28
UACC-62 = test system: UACC-62
OVCAR-5 = test system: OVCAR-5
SK-OV-3 = test system: SK-OV-3
HCT-116 = test system: HCT-116
TK-10 = test system: TK-10
OVCAR-3 = test system: OVCAR-3
OVCAR-8 = test system: OVCAR-8
SW-620 = test system: SW-620
MOLT-4 = test system: MOLT-4
SF-539 = test system: SF-539
UACC-257 = test system: UACC-257
RXF 393 = test system: RXF 393
Malme-3M = test system: Malme-3M
HOP-62 = test system: HOP-62
HCT-15 = test system: HCT-15
CCRF-CEM = test system: CCRF-CEM
A549 = test system: A549
EKVX = test system: EKVX
786-0 = test system: 786-0
PC-3 = test system: PC-3
SN12C = test system: SN12C
KM12 = test system: KM12
SR = test system: SR
ACHN = test system: ACHN
SF-295 = test system: SF-295
K562 = test system: K562
RPMI-8226 = test system: RPMI-8226
NCI-H226 = test system: NCI-H226
T47D = test system: T47D
NCI/ADR-RES = test system: NCI/ADR-RES
OVCAR-4 = test system: OVCAR-4
CAKI-1 = test system: CAKI-1
U-251 = test system: U-251
SK-MEL-5 = test system: SK-MEL-5
SK-MEL-2 = test system: SK-MEL-2
MCF7 = test system: MCF7
MDA-MB-435 = test system: MDA-MB-435
SNB-75 = test system: SNB-75
M14 = test system: M14
LOX IMVI = test system: LOX IMVI
MDA-N = test system: MDA-N
DU-145 = test system: DU-145
SNB-19 = test system: SNB-19
HCC 2998 = test system: HCC 2998
NCI-H460 = test system: NCI-H460
HL-60 = test system: HL-60
HOP-92 = test system: HOP-92

C[N+]1(C)[C@@H]2CC[C@H]1C[C@@H](OC(=O)C(CO)c1ccccc1)C2 (stereo partly drawn) [ATROPINE METHYLBROMIDE]
GI50 (MDA-MB-231): > 100 µM (inactive)
GI50 (BT-549): > 100 µM (inactive)
GI50 (NCI-H23): > 100 µM (inactive)
GI50 (COLO 205): > 100 µM (inactive)
GI50 (HT-29): > 100 µM (inactive)
GI50 (NCI-H522): > 100 µM (inactive)
GI50 (SF-268): > 100 µM (inactive)
GI50 (UO-31): > 100 µM (inactive)
GI50 (A498): > 100 µM (inactive)
GI50 (Hs-578T): > 100 µM (inactive)
GI50 (IGROV-1): > 100 µM (inactive)
GI50 (SK-MEL-28): > 100 µM (inactive)
GI50 (UACC-62): > 100 µM (inactive)
GI50 (OVCAR-5): > 100 µM (inactive)
GI50 (SK-OV-3): > 100 µM (inactive)
GI50 (HCT-116): > 100 µM (inactive)
GI50 (TK-10): > 100 µM (inactive)
GI50 (OVCAR-3): > 100 µM (inactive)
GI50 (OVCAR-8): > 100 µM (inactive)
GI50 (SW-620): > 100 µM (inactive)
GI50 (MOLT-4): > 100 µM (inactive)
GI50 (SF-539): > 100 µM (inactive)
GI50 (UACC-257): > 100 µM (inactive)
GI50 (RXF 393): > 100 µM (inactive)
GI50 (Malme-3M): > 100 µM (inactive)
GI50 (HOP-62): > 100 µM (inactive)
GI50 (HCT-15): > 100 µM
GI50 (CCRF-CEM): > 100 µM (inactive)
GI50 (A549): > 100 µM (inactive)
GI50 (EKVX): > 100 µM (inactive)
GI50 (786-0): > 100 µM (inactive)
GI50 (PC-3): > 100 µM (inactive)
GI50 (SN12C): > 100 µM (inactive)
GI50 (KM12): > 100 µM (inactive)
GI50 (SR): > 100 µM (inactive)
GI50 (ACHN): > 100 µM (inactive)
GI50 (SF-295): > 100 µM (inactive)
GI50 (K562): > 100 µM (inactive)
GI50 (RPMI-8226): > 100 µM (inactive)
GI50 (NCI-H226): > 100 µM (inactive)
GI50 (T47D): > 100 µM (inactive)
GI50 (NCI/ADR-RES): > 100 µM (inactive)
GI50 (OVCAR-4): > 100 µM (inactive)
GI50 (CAKI-1): > 100 µM (inactive)
GI50 (U-251): > 100 µM (inactive)
GI50 (SK-MEL-5): > 100 µM (inactive)
GI50 (SK-MEL-2): > 100 µM (inactive)
GI50 (MCF7): > 100 µM (inactive)
GI50 (MDA-MB-435): > 100 µM (inactive)
GI50 (SNB-75): > 100 µM (inactive)
GI50 (M14): > 100 µM (inactive)
GI50 (LOX IMVI): > 100 µM (inactive)
GI50 (MDA-N): > 100 µM (inactive)
GI50 (DU-145): > 100 µM (inactive)
GI50 (SNB-19): > 100 µM (inactive)

CCOP(=O)(OCC)C(C#N)Cc1ccco1 (stereo not drawn)
GI50 (MDA-MB-231): > 10 µM (inactive)
GI50 (BT-549): > 10 µM (inactive)
GI50 (NCI-H23): > 10 µM (inactive)
GI50 (COLO 205): > 10 µM (inactive)
GI50 (HT-29): > 10 µM (inactive)
GI50 (SF-268): > 10 µM (inactive)
GI50 (UO-31): > 10 µM (inactive)
GI50 (A498): > 10 µM (inactive)
GI50 (Hs-578T): > 10 µM (inactive)
GI50 (IGROV-1): > 10 µM (inactive)
GI50 (SK-MEL-28): > 10 µM (inactive)
GI50 (UACC-62): > 10 µM (inactive)
GI50 (OVCAR-5): > 10 µM (inactive)
GI50 (SK-OV-3): > 10 µM (inactive)
GI50 (HCT-116): > 10 µM (inactive)
GI50 (TK-10): > 10 µM (inactive)
GI50 (OVCAR-3): > 10 µM (inactive)
GI50 (OVCAR-8): > 10 µM (inactive)
GI50 (SW-620): > 10 µM (inactive)
GI50 (MOLT-4): > 10 µM (inactive)
GI50 (SF-539): > 10 µM (inactive)
GI50 (HCC 2998): > 10 µM (inactive)
GI50 (UACC-257): > 10 µM (inactive)
GI50 (RXF 393): > 10 µM (inactive)
GI50 (Malme-3M): > 10 µM (inactive)
GI50 (HOP-62): > 10 µM (inactive)
GI50 (HCT-15): > 10 µM
GI50 (CCRF-CEM): > 10 µM (inactive)
GI50 (A549): > 10 µM (inactive)
GI50 (EKVX): > 10 µM (inactive)
GI50 (786-0): > 10 µM (inactive)
GI50 (PC-3): > 10 µM (inactive)
GI50 (SN12C): > 10 µM (inactive)
GI50 (KM12): > 10 µM (inactive)
GI50 (SR): > 10 µM (inactive)
GI50 (NCI-H460): > 10 µM (inactive)
GI50 (ACHN): > 10 µM (inactive)
GI50 (HL-60): > 10 µM (inactive)
GI50 (SF-295): > 10 µM (inactive)
GI50 (K562): > 10 µM (inactive)
GI50 (RPMI-8226): > 10 µM (inactive)
GI50 (NCI-H226): > 10 µM (inactive)
GI50 (T47D): > 10 µM (inactive)
GI50 (NCI/ADR-RES): > 10 µM (inactive)
GI50 (OVCAR-4): > 10 µM (inactive)
GI50 (CAKI-1): > 10 µM (inactive)
GI50 (U-251): > 10 µM (inactive)
GI50 (SK-MEL-5): > 10 µM (inactive)
GI50 (SK-MEL-2): > 10 µM (inactive)
GI50 (MCF7): > 10 µM (inactive)
GI50 (MDA-MB-435): > 10 µM (inactive)
GI50 (SNB-75): 5.94 µM (inactive)
GI50 (M14): > 10 µM (inactive)
GI50 (HOP-92): > 10 µM (inactive)
GI50 (LOX IMVI): > 10 µM (inactive)
GI50 (MDA-N): > 10 µM (inactive)
GI50 (DU-145): 1.98 µM (inactive)
GI50 (SNB-19): > 10 µM (inactive)
